Holding throughout (format): cell-based
One experiment concerns the target Phospholipase A2 (Rattus norvegicus, UniProt P04055). In words: Inhibition of rat cloned sPLA2-1B expressed in HEK293 cells.
The nature of experiment [1]: Inhibition of human cloned sPLA2-5 expressed in HEK293 cells.
Experiment [2] has as its target T1, Group 10 secretory phospholipase A2 (Homo sapiens, UniProt O15496).
T1 sequence (O15496 whole entry): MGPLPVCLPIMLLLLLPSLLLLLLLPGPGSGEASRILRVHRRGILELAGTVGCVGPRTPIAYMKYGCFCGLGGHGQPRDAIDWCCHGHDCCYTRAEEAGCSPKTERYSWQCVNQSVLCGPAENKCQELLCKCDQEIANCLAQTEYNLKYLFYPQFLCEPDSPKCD
Description: Inhibition of human cloned sPLA2-10 expressed in HEK293 cells.

In experiment [3] the target is T2, Cytosolic phospholipase A2 (Homo sapiens, UniProt P47712).
T2 sequence (P47712 whole entry): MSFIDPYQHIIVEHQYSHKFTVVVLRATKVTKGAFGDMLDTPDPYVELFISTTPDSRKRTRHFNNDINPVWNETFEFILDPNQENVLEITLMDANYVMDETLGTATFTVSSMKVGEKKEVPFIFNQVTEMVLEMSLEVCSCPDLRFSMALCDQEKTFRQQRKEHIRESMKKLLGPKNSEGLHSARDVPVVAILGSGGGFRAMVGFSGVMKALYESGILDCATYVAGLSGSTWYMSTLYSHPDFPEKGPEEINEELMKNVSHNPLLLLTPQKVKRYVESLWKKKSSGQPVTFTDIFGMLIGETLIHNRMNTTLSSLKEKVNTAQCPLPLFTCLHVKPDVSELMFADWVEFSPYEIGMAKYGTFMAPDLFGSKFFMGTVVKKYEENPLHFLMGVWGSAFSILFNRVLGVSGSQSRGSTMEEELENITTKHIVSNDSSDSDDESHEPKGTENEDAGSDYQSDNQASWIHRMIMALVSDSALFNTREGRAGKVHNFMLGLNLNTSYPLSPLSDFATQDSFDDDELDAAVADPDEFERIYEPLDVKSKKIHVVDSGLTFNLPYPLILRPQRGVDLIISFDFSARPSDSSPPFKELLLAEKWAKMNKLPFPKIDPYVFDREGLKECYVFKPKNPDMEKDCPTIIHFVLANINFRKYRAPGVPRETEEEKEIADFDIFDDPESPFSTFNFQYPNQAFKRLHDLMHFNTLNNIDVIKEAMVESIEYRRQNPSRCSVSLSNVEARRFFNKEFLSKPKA
Description: Inhibition of human cloned cPLA2 expressed in HEK293 cells.

We go through eight molecules from ChEMBL document CHEMBL1140451, “Inhibitory effect of synthetic C-C biflavones on various phospholipase A(2)s activity” (Bioorg Med Chem, 2007).

What is called IC50 is the midpoint of a concentration-inhibition curve. Low values mean greater potency in that assay, high ones weaker potency in that assay.

Chain of Phospholipase A2 (P04055 whole entry): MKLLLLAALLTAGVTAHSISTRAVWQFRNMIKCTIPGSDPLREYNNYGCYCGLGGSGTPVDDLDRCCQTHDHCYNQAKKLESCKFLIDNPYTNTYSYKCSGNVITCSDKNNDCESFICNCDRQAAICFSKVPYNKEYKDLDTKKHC

In the case of `O=c1cc(-c2ccc(-c3c(-c4ccccc4)oc4ccccc4c3=O)cc2)oc2ccccc12`, the 50% inhibitory concentration (IC50) at Phospholipase A2 was more than 100 µM; in experiment [1], 6.5 µM; in experiment [2] it was more than 100 µM; in experiment [3], 8.42 µM.

With `O=c1cc(-c2ccc(-c3ccc(-c4cc(=O)c5ccccc5o4)cc3)cc2)oc2ccccc12`, the half-maximal inhibitory concentration (IC50) is more than 100 µM at Phospholipase A2, 8.7 µM in experiment [1], more than 100 µM in experiment [2] and 6 µM in experiment [3].

Take `O=c1cc(-c2ccc(-c3ccc4oc(-c5ccccc5)cc(=O)c4c3)cc2)oc2ccccc12`: the IC50 against Phospholipase A2 was more than 100 µM; in experiment [1], 10.8 µM; in experiment [2] it was more than 100 µM; in experiment [3], 11.9 µM.

Turning to `O=c1cc(-c2ccc(-c3cccc(-c4cc(=O)c5ccccc5o4)c3)cc2)oc2ccccc12`, the IC50 was more than 100 µM at Phospholipase A2, 23.9 µM in experiment [1], more than 100 µM in experiment [2] and 38.7 µM in experiment [3].

In the case of `O=c1cc(-c2cccc(-c3ccc4oc(-c5ccccc5)cc(=O)c4c3)c2)oc2ccccc12`, the IC50 on Phospholipase A2 was more than 100 µM; in experiment [1] it was 12.8 µM; in experiment [2], 27.6 µM; in experiment [3] it was 16.8 µM.

Regarding `O=c1cc(-c2ccccc2)oc2ccc(-c3ccc4oc(-c5ccccc5)cc(=O)c4c3)cc12`, the IC50 at Phospholipase A2 was more than 100 µM; in experiment [1], 50 µM; in experiment [2], more than 100 µM; in experiment [3] it was 48.1 µM.

Turning to `O=c1cc(-c2ccc(O)c(-c3c(O)cc(O)c4c(=O)cc(-c5ccc(O)cc5)oc34)c2)oc2cc(O)cc(O)c12` [AMENTOFLAVONE], the 50% inhibitory concentration (IC50) on Phospholipase A2 was more than 100 µM; in experiment [1], 41.8 µM; in experiment [2], more than 100 µM; in experiment [3] it was more than 100 µM.

Consider `O=c1cc(-c2ccc(Oc3cc(-c4cc(=O)c5c(O)cc(O)cc5o4)ccc3O)cc2)oc2cc(O)cc(O)c12` [OCHNAFLAVONE], for which the half-inhibitory concentration (IC50) on Phospholipase A2 was more than 100 µM; in experiment [1], 17.6 µM; in experiment [2], more than 100 µM; in experiment [3], more than 100 µM.
